Assay results: patent US8304371B2, “Insecticidal arylpyrrolines” (Bayer Cropscience AG, priority 2008, dated 2012)
Where two headings read alike, the source gives them in different places.

Legend:
Type in all cases: in vivo
[1] = tested on: Strain of Green Peach Aphid (Mvzus persicas) which is Resistant to Organic Phosphorus and Carbamate Agents; experiment: Test against resistant green peach aphid, spray on egg plant; details: active compound concentration 500 ppm; after 7 days
Method: (§1) Unless nomentioned otherwise, the test solutions were prepared as follows:
(§2) Containing as solvent: Dimethylformamide, 3 parts by weight; and as emulsifier: Polyoxyethylene alkyl phenyl ether, 1 part by weight
(§3) To prepare the test solution, 1 part by weight of an active compound is mixed with the above-mentioned amount of solvent containing the above-mentioned amount of emulsifier, and the mixture is diluted with water to the desired concentration.
About 30 to 50 of the resistant green peach aphids were inoculated per seedling, onto the leaves of egg plant at the two-true leaf stage, which plant had been cultivated in a pot having a diameter of 6 cm. One day after the inoculation, the test solution at the appropriate concentration was sprayed thereon in a sufficient amount using a spray gun. After the spraying, the plant pot was placed in a greenhouse at 28° C., and after 7 days, the insecticidal activity was calculated. An insecticidal activity of 100% means that all aphids were killed, whereas an insecticidal activity of […] means that no aphid was killed. The test was repeated two times.

[2] = tested on: Cat Fleas (Ctenocephalides fells); experiment: Test against cat fleas, blood feeding; details: for mortality at 100 ppm: Ctenocephalides, 48 h, read-out: mortality rate
Method: (§4) Solvent: Dimethylsulfoxide
About 10 to 15 adult cat fleas are provided in a container exclusive for fleas. An exclusive container containing the test solution is covered with Parafilm, reversed upside down, and then mounted on top of the flea container, so that the cat fleas can suck the blood in the container. The test solution is maintained at 37° C., and the flea container is maintained at room temperature. After 2 days the mortality rate of the cat fleas is measured. 100% means that all of the cat fleas have been killed, while 0% means that all are alive.

[3] = tested on: Cattle Tick (Boophilus microplus); experiment: Test against cattle tick, injection; details: 20 μg/animal injected; after 7 days; 100% means that all eggs are infertile
Method: as §4
In order to make a suitable test solution, 10 mg of an active compound is dissolved in 0.5 ml of the above mentioned solvent, and the mixture is diluted with water to a predetermined concentration.
The test solution is injected into the abdomens of five fully-fed female adult cattle ticks. The cattle ticks are transferred to a replica plate, and are bred in a breeding vessel for a certain time period. Egg deposition of fertile eggs is monitored.
After 7 days the mortality rate of the cattle ticks is measured. 100% means that all eggs are infertile; and 0% means that all eggs are fertile.

[4] = tested on: Two-Spotted Spider Mite (Tetranvchus urticae); experiment: Test against two-spotted spider mite, spray on kidney bean; details: active compound concentration 100 ppm; adult mites; after 7 days
Method: as §1, §2, §3
50 to 100 adult two-spotted spider mites were inoculated onto the leaves of kidney beans at the two-true leaf stage, which plant had been cultivated in a pot having a diameter of 6 cm. After one day, test solution at the appropriate concentration was sprayed thereon in a sufficient amount using a spray gun. After the spraying, the plant pot was placed inside a greenhouse, and after 7 days, the acaricidal activity was calculated. An acaricidal activity of 100% means that all mites were killed, whereas an acaricidal activity of 0% means that no mite was killed.

[5] = tested on: Tobacco Cutworm (Spodoptera litura) Larvae; experiment: Test against tobacco cutworm (Spodoptera litura) larvae, leaf dip; details: active compound concentration 100 ppm; third-instar larvae; after 7 days
Method: as §1, §2, §3
The leaves of sweet potato were immersed in the test solution at the appropriate concentration, and the leaves were dried in air. The leaves were then placed in a petri dish having a diameter of 9 cm, and ten third-instar larvae of tobacco cutworm were released therein. The petri dish was placed in a temperature chamber at 25° C. After 2 days and 4 days sweet potato leaves were additionally added. After 7 days, the number of dead larvae was counted, to calculate the insecticidal activity. An insecticidal activity of 100% means that all larvae were killed, whereas an insecticidal activity of 0% means that no larva was killed. In the current test, the results of two petri dishes for each partition were averaged.

[6] = tested on: Sheep Blowfly (Lucillia cuprina); experiment: Test against sheep blowfly; details: active compound concentration 100 ppm; after 2 days
Method: as §4
(§5) In order to make a suitable test solution, 10 mg of an active compound is dissolved in 0.5 ml of the solvent, and the mixture is diluted with water to a predetermined concentration.
Minced horse meat having a size of 1 square centimeter, and 0.5 ml of the test solution are placed in a test tube, and about 20 to 30 adult sheep blowflies are introduced therein.
After 2 days the mortality rate of the sheep blowflies is measured. 100% means that all of the sheep blowflies have been killed, and 0% means that all are alive.

[7] = tested on: Housefly (Musca domestica); experiment: Test against housefly; details: for mortality at 100 ppm: Musca domestica, 48 h, read-out: mortality rate
Method: as §4, §5
In a preliminary stage of the test, a piece of sponge having a certain size is soaked with a mixture of sugar and the test solution is placed in a test container. Ten adult houseflies are introduced to the container, and the container is covered with a perforated lid.
After 2 days, the mortality rate of the houseflies is measured. At that time, 100% means that all of the houseflies have been killed, and 0% means that all are alive.

[8] = tested on: Cucurbit Leaf Beetle (Aulacophora femoralis); experiment: Test against cucurbit leaf beetle, cucumber leaf dip; details: active compound concentration 100 ppm; second-instar larvae; after 7 days
Method: as §1, §2, §3
Cucumber leaves were immersed in the test solution at the appropriate concentration, and the leaves were dried in air. The leaves were then placed in a plastic cup containing aseptically sterilized black soil, and five second-instar larvae of cucurbit leaf beetle were released therein. After 7 days, the number of dead larvae was counted, and thus the insecticidal activity was calculated. An insecticidal activity of 100% means that all beetles were killed, whereas an insecticidal activity of 0% means that no beetle was killed.

[9] = tested on: Nymphs of the tick Amblyomma hebraeum; experiment: Amblyomma hebraeum test, nymph immersion; details: 48 h, read-out: activity (mortality in %)
Method: as §4
To produce a suitable preparation of active compound. 1 part by weight of active compound is mixed with the stated amount of solvent, and the concentrate is diluted with containing solvent to the desired concentration.
Nymphs of the tick Amblyomma hebraeum are placed in perforated plastic beakers and immersed in aqueous compound solution for one minute. Ticks are transferred to a filter paper in a Petri dish and incubated in a climate chamber for 42 days.
After 2 days mortality in % is determined. 100% means that all the ticks have been killed; 0% means that none of the ticks have been killed.

[10] = tested on: adult engorged female Boophilus microplus ticks; experiment: Boophilus microplus test, immersion of engorged females; details: Rhipicephalus microplus, 168 h, read-out: activity (mortality in %)
Method: Solvent: Dimethylsulfoxid
To produce a suitable preparation of active compound, 10 mg of active compound are dissolved in 0.5 ml solvent, and the concentrate is diluted with water to the desired concentration.
Eight to ten adult engorged female Boophilus microplus ticks are placed in perforated plastic beakers and immersed in aqueous compound solution for one minute. Ticks are transferred to a filter paper in a plastic tray. Egg deposition of fertile eggs is monitored after.
After 7 days mortality in % is determined. 100% means that all the ticks have been killed; 0% means that none of the ticks have been killed.

[11] = active compound concentration 100 ppm in blood, adult fleas, after 2 days
[12] = application rate 100 ppm, immersed one minute, after 2 days
[13] = application rate 100 ppm, immersed one minute, after 7 days

SMILES: FC(F)(F)C1(c2cc(Cl)cc(Cl)c2)CN=C(c2ccc(-n3cncn3)c(Br)c2)C1 (stereo not shown) [1-21]
- insecticidal activity [1]: 100%
- mortality rate [2, 11]: at least 90%
- mortality rate [3]: 100%
- acaricidal activity [4]: 100%
- insecticidal activity [5]: 100%
- mortality rate [6]: 100%
- mortality rate ([7]; active compound concentration 100 ppm, adult houseflies, after 2 days): 100%
- insecticidal activity [8]: 100%

SMILES: N#Cc1cc(C2=NCC(c3cc(Cl)c(Cl)c(Cl)c3)(C(F)(F)F)C2)ccc1-n1cncn1 (stereo not shown) [1-78, 2-(1H-1,2,4-triazol-1-yl)-5-[3-(3,4,5-trichlorophenyl)-3-(trifluoromethyl)-3,4-dihydro-2H-pyrrol-5-yl]-benzonitrile]
- mortality at 100 ppm [9, 12]: ≥ 80%
- mortality at 100 ppm [10, 13]: ≥ 80%
- insecticidal activity [1]: 100%
- mortality at 100 ppm [2, 11]: ≥ 80%
- acaricidal activity [4]: 100%
- insecticidal activity [5]: 100%
- mortality at 100 ppm [7]: ≥ 80%
- insecticidal activity [8]: 100%

SMILES: CC(=O)NCc1ccc(C2=NCC(c3cc(Cl)cc(Cl)c3)(C(F)(F)F)C2)cc1Br (stereo not shown) [2-13, N-{2-bromo-4-[3-(3,5-dichlorophenyl)-3-(trifluoromethyl)-3,4-dihydro-2H-pyrrol-5-yl]benzyl}acetamide]
- mortality at 100 ppm [10, 13]: ≥ 80%
- mortality at 100 ppm [2, 11]: ≥ 80%
- insecticidal activity [5]: 100%
- mortality at 100 ppm [7]: ≥ 80%

SMILES: O=C(CC(F)(F)F)NCc1ccc(C2=NCC(c3cc(Cl)c(Cl)c(Cl)c3)(C(F)(F)F)C2)c2ccccc12 (stereo not shown) [11-8]
- insecticidal activity [1]: 100%
- acaricidal activity [4]: 100%
- insecticidal activity [5]: 100%
- insecticidal activity [8]: 100%

SMILES: CS/C(=N\C[Si](C)(C)C)c1ccc(COC(C)=O)c2ccccc12 [15-2, {4-[(Z)-(methylsulfanyl){[(trimethylsilyl)methyl]imino}methyl]naphthalen-1-yl}methyl acetate]
- mortality at 100 ppm [9]: ≥ 80%
- mortality at 100 ppm [10]: ≥ 80%
- mortality at 100 ppm [2]: ≥ 80%
- mortality at 100 ppm [7]: ≥ 80%

SMILES: N#Cc1cc(C2=NCC(c3cc(Cl)cc(Cl)c3)(C(F)(F)F)C2)ccc1-n1cncn1 (stereo not shown) [Compound No. 1-39, 5-[3-(3,5-dichlorophenyl)-3-(trifluoromethyl)-3,4-dihydro-2H-pyrrol-5-yl]-2-(1H-1,2,4-triazol-1-yl)benzonitrile]
- mortality at 100 ppm [9, 12]: ≥ 80%
- mortality at 100 ppm [10, 13]: ≥ 80%
- insecticidal activity [1]: 98%
- mortality at 100 ppm [2, 11]: 100%
- acaricidal activity [4]: 98%
- insecticidal activity [5]: 100%
- mortality rate [6]: 100%
- mortality at 100 ppm [7]: 100%
- insecticidal activity [8]: 100%
